Several values for one entry are separate records, joined by “and”; a condition that tells them apart may be missing. Identical values can stand only once.
What was measured:
[1] = in vitro; details: human
[2] = target: T1, BtCoV Rp3 PLpro (Bat coronavirus Rp3/2004, UniProt P0C6W6); assay type: binding
[3] = target: SARS-CoV-2 PLpro WT (Severe acute respiratory syndrome coronavirus 2, UniProt P0DTD1); assay type: binding
[4] = target: T2, SARS-CoV PLpro (Severe acute respiratory syndrome coronavirus, UniProt P0C6X7); experiment: biochemical
[5] = target: T3, BtCoV Rp3 Mpro (Bat coronavirus Rp3/2004, UniProt P0C6W6); experiment: biochemical; assay type: binding
[6] = test system: RD cells; details: concentrations up to 100 µM
[7] = target: T4, SARS-CoV Mpro (Severe acute respiratory syndrome coronavirus, UniProt P0C6X7); experiment: biochemical; assay type: binding
[8] = target: T5, MERS-CoV Mpro (Middle East respiratory syndrome-related coronavirus, UniProt K9N7C7); assay type: binding
[9] = target: T1, BtCoV Rp3 PLpro; experiment: biochemical; assay type: binding
[10] = test system: HCoV-OC43; experiment: microbe, parasite or virus in culture; assay type: cell-based, human coronavirus OC43; details: for EC50: Betacoronavirus 1, OC43, RD, 48 h
[11] = target: T6, MERS-CoV PLpro (Middle East respiratory syndrome-related coronavirus, UniProt K9N7C7); experiment: biochemical; assay type: binding
[12] = target: T3, BtCoV Rp3 Mpro; experiment: biochemical
[13] = target: T6, MERS-CoV PLpro; assay type: binding
[14] = target: T2, SARS-CoV PLpro; experiment: biochemical; assay type: binding
[15] = target: T5, MERS-CoV Mpro; experiment: biochemical; assay type: binding
[16] = target: T4, SARS-CoV Mpro; assay type: binding
[17] = target: T7, SARS-CoV-2 PLpro (Severe acute respiratory syndrome coronavirus 2, UniProt P0DTD1); experiment: biochemical; assay type: binding; details: pH 7.4, read-out: ka
[18] = target: T8, SARS-CoV-2 Mpro (Severe acute respiratory syndrome coronavirus 2, UniProt P0DTD1); experiment: biochemical; assay type: binding; details: pH 7.4, read-out: ka
[19] = target: T7, SARS-CoV-2 PLpro; experiment: biochemical
[20] = target: T8, SARS-CoV-2 Mpro; experiment: biochemical

T5 sequence (K9N7C7 3248-3553 limits assumed): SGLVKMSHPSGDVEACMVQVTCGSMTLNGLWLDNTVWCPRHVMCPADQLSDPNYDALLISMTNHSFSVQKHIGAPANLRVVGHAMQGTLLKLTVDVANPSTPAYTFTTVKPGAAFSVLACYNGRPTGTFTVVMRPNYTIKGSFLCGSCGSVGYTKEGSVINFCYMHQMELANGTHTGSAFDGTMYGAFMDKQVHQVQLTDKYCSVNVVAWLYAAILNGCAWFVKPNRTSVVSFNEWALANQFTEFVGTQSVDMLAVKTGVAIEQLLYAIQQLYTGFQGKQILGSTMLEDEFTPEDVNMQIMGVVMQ
T6 sequence (K9N7C7 1552-1823 limits assumed): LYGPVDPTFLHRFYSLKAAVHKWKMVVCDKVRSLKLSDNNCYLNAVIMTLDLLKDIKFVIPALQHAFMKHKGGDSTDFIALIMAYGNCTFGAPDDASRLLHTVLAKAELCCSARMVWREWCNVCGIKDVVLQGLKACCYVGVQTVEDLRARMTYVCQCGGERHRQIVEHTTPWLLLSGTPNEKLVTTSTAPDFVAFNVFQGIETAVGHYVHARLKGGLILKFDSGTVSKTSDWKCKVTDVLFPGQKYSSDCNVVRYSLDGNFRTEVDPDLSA

With `Cc1cc(O)c(O)c(Oc2cc(C)cc(O)c2Oc2cc(C)cc(O)c2O)c1` [Sydowiol B, sydowiol B] the CC50 at 48 h [1] was greater than 200000 nM, the Tm value [2] was 53.59 ± 0.20 (4.00) ℃ and 53.87 ± 0.13 (4.28) ℃ and 52.79 ± 0.27 (3.20) ℃ and the “△Tm” value [2] was 53.59 ± 0.20 (4.00) ℃ and 53.87 ± 0.13 (4.28) ℃ and 52.79 ± 0.27 (3.20) ℃. The Tm value [3] was 51.24 ± 0.36 (5.29) ℃ and 50.31 ± 0.06 (4.36) ℃, the IC50 [4] was 2420 ± 1100 nM and the Kd [5] was 1930 nM. For the same molecule, the “influence on cell viability” value [6] was “no influence”, the Kd [7] was 2540 nM and the Tm value [8] was 47.47 ± 0.33 (1.37) ℃ and 47.33 ± 0.00 (1.23) ℃ and 47.27 ± 0.16 (1.17) ℃. The Kd [9] was 11800 nM, the EC50 [10] was 690 ± 100 nM and the Kd [11] was 450 nM. For the same molecule, the IC50 [12] was 1160 ± 1230 nM, the Tm value [13] was 57.67 ± 0.32 (2.78) ℃ and 57.20 ± 0.13 (2.31) ℃ and 56.95 ± 0.13 (2.06) ℃ and the Kd [14] was 14200 nM. The Kd [15] was 9350 nM and the Tm value [16] was 57.17 ± 0.19 (1.25) ℃ and 56.82 ± 0.25 (0.90) ℃ and 56.37 ± 0.28 (0.45) ℃.
`Cc1cc(O)c(O)c(Oc2cc(C)cc(O)c2O)c1` [Violaceol I, violaceol I] showed a kon [17] of 494 M⁻¹ s⁻¹, a CC50 at 48 h [1] greater than 100000 nM and a kon [18] of 969 M⁻¹ s⁻¹. The kon ([5]; pH 7.4, read-out: ka) was 532 M⁻¹ s⁻¹, the “influence on cell viability” value [6] was “no influence” and the IC50 [19] was 42300 ± 1020 nM. The kon ([7]; pH 7.4, read-out: ka) was 547 M⁻¹ s⁻¹, the kon ([9]; pH 7.4, read-out: ka) was 551 M⁻¹ s⁻¹ and the “Selection Index (SI)” value [10] was “>42.02”. It also gave an EC50 [10] of 2380 ± 20 nM, a kon ([11]; pH 7.4, read-out: ka) of 479 M⁻¹ s⁻¹ and a kon ([14]; pH 7.4, read-out: ka) of 516 M⁻¹ s⁻¹. For the same molecule, the kon ([15]; pH 7.4, read-out: ka) was 454 M⁻¹ s⁻¹ and the IC50 [20] was 8270 ± 1150 nM.

— publication PMC11699025 (Natural Products and Bioprospecting, 2025)
